Assay results taken from patent US4156724A, “N-acylamino-alpha-arylacetamido cephalosporins and antibacterial compositions and methods containing them” (Sumitomo Chemical Company, Limited, priority 1974, dated 1979).
In brackets after ≈: the same amount, converted by molar mass.

Assays:
Assay type in all cases: cell-based
[1] = system: Staphylococcus aureus 209 P; assay: Minimum Inhibitory Concentration, Staphylococcus aureus 209 P; settings: Staphylococcus aureus 209 P; for MIC: read-out: Minimum Inhibitory Concentration
Protocol: (§1) anti-microbial activity tests were carried out on the compounds obtained in the Examples.

[2] = system: Staphylococcus aureus FS 289; assay: Minimum Inhibitory Concentration, Staphylococcus aureus FS 289; settings: Staphylococcus aureus FS 289, strain resistant to penicillin; for MIC: FS289, read-out: Minimum Inhibitory Concentration
Protocol: as §1
*Staphylococcus aureus FS 289: strain resistant to penicillin

[3] = system: Pseudomonas aeruginosa 104; assay: Minimum Inhibitory Concentration, Pseudomonas aeruginosa 104; settings: Pseudomonas aeruginosa 104; for MIC: read-out: Minimum Inhibitory Concentration
Protocol: as §1

[4] = system: Enterobacter aerogeneus No. 75; assay: Minimum Inhibitory Concentration, Enterobacter aerogeneus No. 75; settings: Enterobacter aerogeneus No. 75; for MIC: read-out: Minimum Inhibitory Concentration
Protocol: as §1

[5] = system: Serratia No. 72; assay: Minimum Inhibitory Concentration, Serratia No. 72
Protocol: as §1

[6] = system: Klebsiella pneumoniae 602; assay: Minimum Inhibitory Concentration, Klebsiella pneumoniae 602; settings: for MIC: Klebsiella pneumoniae, 602, Klebsiella pneumoniae 602, read-out: Minimum Inhibitory Concentration
Protocol: as §1

[7] = system: Escherichia coli NIHJ; assay: Minimum Inhibitory Concentration, Escherichia coli NIHJ; settings: Escherichia coli NIHJ; for MIC: read-out: Minimum Inhibitory Concentration
Protocol: as §1

[8] = system: Proteus vulgaris HX 19; assay: Minimum Inhibitory Concentration, Proteus vulgaris HX 19; settings: Proteus vulgaris HX 19; for MIC: HX19, read-out: Minimum Inhibitory Concentration
Protocol: as §1

Row | Compound | MIC [1] | MIC [2] | MIC [3] | MIC [4] | MIC [5] | MIC [6] | MIC [7] | MIC [8] | Minimum Inhibitory Concentration [1] | Minimum Inhibitory Concentration [2] | Minimum Inhibitory Concentration [3] | Minimum Inhibitory Concentration [4] | Minimum Inhibitory Concentration [5] | Minimum Inhibitory Concentration ([6]; Klebsiella pneumoniae 602) | Minimum Inhibitory Concentration [7] | Minimum Inhibitory Concentration [8]
1 | Cn1nnnc1SCC1=C(C(=O)[O-])N2C(=O)C(NC(=O)C(NC(=O)c3cnc4cccnc4c3O)c3cccc(N)c3)C2SC1.[Na+] (centres unmarked) [Example 55] | – | – | – | – | – | – | – | – | 0.78 µg/mL | 3.13 µg/mL | 3.13 µg/mL | 3.13 µg/mL | 12.5 µg/mL | 3.13 µg/mL | 1.56 µg/mL | 0.1 µg/mL
2 | Cc1nnc(SCC2=C(C(=O)O)N3C(=O)C(NC(=O)C(NC(=O)c4cnccc4O)c4ccc(N)cc4)C3SC2)s1 (centres unmarked) [Example 56] | 0.39 µg/mL (≈ 0.635 µM) | 6.25 µg/mL (≈ 10.2 µM) | 6.25 µg/mL (≈ 10.2 µM) | 12.5 µg/mL (≈ 20.4 µM) | 50 µg/mL (≈ 81.5 µM) | 6.25 µg/mL (≈ 10.2 µM) | 6.25 µg/mL (≈ 10.2 µM) | 0.1 µg/mL (≈ 0.163 µM) | – | – | – | – | – | – | – | –
3 | Nc1cccc(C(NC(=O)c2ccnnc2O)C(=O)NC2C(=O)N3C(C(=O)O)=C(CSc4nncs4)CSC23)c1 (centres unmarked) [Example 59] | 0.39 µg/mL (≈ 0.649 µM) | 6.25 µg/mL (≈ 10.4 µM) | 6.25 µg/mL (≈ 10.4 µM) | 12.5 µg/mL (≈ 20.8 µM) | 50 µg/mL (≈ 83.2 µM) | 6.25 µg/mL (≈ 10.4 µM) | 6.25 µg/mL (≈ 10.4 µM) | 0.1 µg/mL (≈ 0.166 µM) | – | – | – | – | – | – | – | –
4 | Cn1nnnc1SCC1=C(C(=O)O)N2C(=O)C(NC(=O)C(NC(=O)c3ccnnc3O)c3cccc(N)c3)C2SC1 (centres unmarked) [Example 60] | 0.39 µg/mL (≈ 0.651 µM) | 6.25 µg/mL (≈ 10.4 µM) | 6.25 µg/mL (≈ 10.4 µM) | 12.5 µg/mL (≈ 20.9 µM) | 50 µg/mL (≈ 83.5 µM) | 6.25 µg/mL (≈ 10.4 µM) | 6.25 µg/mL (≈ 10.4 µM) | 0.1 µg/mL (≈ 0.167 µM) | – | – | – | – | – | – | – | –
5 | Cc1nnc(SCC2=C(C(=O)O)N3C(=O)C(NC(=O)C(NC(=O)c4cncnc4O)c4ccc(N)cc4)C3SC2)s1 (centres unmarked) [Example 61] | 0.39 µg/mL (≈ 0.634 µM) | 6.25 µg/mL (≈ 10.2 µM) | 6.25 µg/mL (≈ 10.2 µM) | 25 µg/mL (≈ 40.7 µM) | > 200 µg/mL | 12.5 µg/mL (≈ 20.3 µM) | 25 µg/mL (≈ 40.7 µM) | 0.2 µg/mL (≈ 0.325 µM) | – | – | – | – | – | – | – | –
6 | Cc1ccc2c(O)c(C(=O)NC(C(=O)NC3C(=O)N4C(C(=O)O)=C(CSc5nnn(C)n5)CSC34)c3cccc(N)c3)cnc2n1 (centres unmarked) [Example 63] | 1.56 µg/mL (≈ 2.35 µM) | 6.25 µg/mL (≈ 9.43 µM) | 6.25 µg/mL (≈ 9.43 µM) | 12.5 µg/mL (≈ 18.9 µM) | 50 µg/mL (≈ 75.4 µM) | 1.56 µg/mL (≈ 2.35 µM) | 6.25 µg/mL (≈ 9.43 µM) | 0.1 µg/mL (≈ 0.151 µM) | – | – | – | – | – | – | – | –

The next lines start with results.

Row | MIC [1] | MIC [2] | MIC [3] | MIC [4] | MIC [5] | MIC [6] | MIC [7] | MIC [8] | Compound | Minimum Inhibitory Concentration [1] | Minimum Inhibitory Concentration [2] | Minimum Inhibitory Concentration [3] | Minimum Inhibitory Concentration [4] | Minimum Inhibitory Concentration [5] | Minimum Inhibitory Concentration ([6]; Klebsiella pneumoniae 602) | Minimum Inhibitory Concentration [7] | Minimum Inhibitory Concentration [8]
7 | 1.56 µg/mL (≈ 2.35 µM) | 6.25 µg/mL (≈ 9.4 µM) | 6.25 µg/mL (≈ 9.4 µM) | 3.13 µg/mL (≈ 4.71 µM) | 12.5 µg/mL (≈ 18.8 µM) | 3.13 µg/mL (≈ 4.71 µM) | 1.56 µg/mL (≈ 2.35 µM) | 0.1 µg/mL (≈ 0.15 µM) | Cc1nnc(SCC2=C(C(=O)O)N3C(=O)C(NC(=O)[C@H](NC(=O)c4cnc5cccnc5c4O)c4ccc(N)cc4)C3SC2)s1 (stereo partly drawn) [Example 52, 7-[D-α-(4-Hydroxy-1,5-naphthyridine-3-carbonamido)-α-p-aminophenylacetamido]-3-(2-methyl-1,3,4-thiadiazol-5yl)thiomethyl-3-cephem-4-carboxylic acid] | – | – | – | – | – | – | – | –
8 | 1.56 µg/mL (≈ 2.63 µM) | 6.25 µg/mL (≈ 10.5 µM) | 6.25 µg/mL (≈ 10.5 µM) | 6.25 µg/mL (≈ 10.5 µM) | 50 µg/mL (≈ 84.4 µM) | 1.56 µg/mL (≈ 2.63 µM) | 3.13 µg/mL (≈ 5.28 µM) | 0.39 µg/mL (≈ 0.658 µM) | CC(=O)OCC1=C(C(=O)O)N2C(=O)C(NC(=O)C(NC(=O)c3cnc4cccnc4c3O)c3cccc(N)c3)C2SC1 (centres unmarked) [Example 53] | – | – | – | – | – | – | – | –
9 | 0.78 µg/mL (≈ 1.23 µM) | 6.25 µg/mL (≈ 9.86 µM) | 3.13 µg/mL (≈ 4.94 µM) | 3.13 µg/mL (≈ 4.94 µM) | 12.5 µg/mL (≈ 19.7 µM) | 3.13 µg/mL (≈ 4.94 µM) | 1.56 µg/mL (≈ 2.46 µM) | 0.1 µg/mL (≈ 0.158 µM) | Nc1cccc(C(NC(=O)c2cnc3cccnc3c2O)C(=O)NC2C(=O)N3C(C(=O)O)=C(CSc4cnn[nH]4)CSC23)c1 (centres unmarked) [Example 54] | – | – | – | – | – | – | – | –
10 | 0.39 µg/mL (≈ 0.653 µM) | 6.25 µg/mL (≈ 10.5 µM) | 6.25 µg/mL (≈ 10.5 µM) | 12.5 µg/mL (≈ 20.9 µM) | 50 µg/mL (≈ 83.7 µM) | 6.25 µg/mL (≈ 10.5 µM) | 6.25 µg/mL (≈ 10.5 µM) | 0.1 µg/mL (≈ 0.167 µM) | Cn1nnnc1SCC1=C(C(=O)O)N2C(=O)C(NC(=O)C(NC(=O)c3cnccc3O)c3cccc(N)c3)C2SC1 (centres unmarked) [Example 57] | – | – | – | – | – | – | – | –
11 | 0.39 µg/mL (≈ 0.719 µM) | 3.13 µg/mL (≈ 5.77 µM) | 6.25 µg/mL (≈ 11.5 µM) | 25 µg/mL (≈ 46.1 µM) | > 200 µg/mL | 12.5 µg/mL (≈ 23 µM) | 12.5 µg/mL (≈ 23 µM) | 0.2 µg/mL (≈ 0.369 µM) | CC(=O)OCC1=C(C(=O)O)N2C(=O)C(NC(=O)C(NC(=O)c3ccnnc3O)c3ccc(N)cc3)C2SC1 (centres unmarked) [Example 58] | – | – | – | – | – | – | – | –
12 | 1.56 µg/mL (≈ 2.57 µM) | 6.25 µg/mL (≈ 10.3 µM) | 6.25 µg/mL (≈ 10.3 µM) | 25 µg/mL (≈ 41.2 µM) | 100 µg/mL (≈ 165 µM) | 3.13 µg/mL (≈ 5.16 µM) | 12.5 µg/mL (≈ 20.6 µM) | 0.39 µg/mL (≈ 0.643 µM) | CC(=O)OCC1=C(C(=O)O)N2C(=O)C(NC(=O)C(NC(=O)c3cnc4nc(C)ccc4c3O)c3cccc(N)c3)C2SC1 (centres unmarked) [Example 62] | – | – | – | – | – | – | – | –
13 | 1.56 µg/mL (≈ 2.4 µM) | 6.25 µg/mL (≈ 9.6 µM) | 6.25 µg/mL (≈ 9.6 µM) | 3.13 µg/mL (≈ 4.81 µM) | 12.5 µg/mL (≈ 19.2 µM) | 3.13 µg/mL (≈ 4.81 µM) | 1.56 µg/mL (≈ 2.4 µM) | 0.1 µg/mL (≈ 0.154 µM) | Nc1cccc([C@@H](NC(=O)c2cnc3cccnc3c2O)C(=O)NC2C(=O)N3C(C(=O)O)=C(CSc4nncs4)CSC23)c1 (stereo partly drawn) [Example 64, 7-[D-α-(4-Hydroxy-1,5-naphthyridine-3-carbonamido)-α-m-aminophenylacetamido]-3-(1,3,4-thiadiazol-5-yl)thiomethyl-3-cephem-4-carboxylic acid] | – | – | – | – | – | – | – | –
